Like-named read-outs stand apart in the source and are kept apart here.
Key:
[1] = test system: NMDA receptor; details: cited from earlier work; for reversal of NMDA antagonist activity / blocking effect by glycine: presence of glycine
[2] = test system: hippocampal slice; assay: Epileptic hippocampal slice, 0% Mg+2-induced epilepsy; format: cell-based, Sprague-Dawley albino rat; details: Rattus norvegicus, 300 μM Compound No. 35, 0% Mg+2
Description: Hippocampal slices (450 μ) were obtained from male Sprague-Dawley albino rats (100-325 g). The method of slice preparation has been detailed elsewhere [A. H. Ganong et al., Brain Res., 273, 170-174 (1983)]. Slices were stored in a humidified interface chamber at room temperature and bathed in artificial cerebrospinal fluid (ACSF) which contained (in mM): NaCl 124.0, KCl 5.0, KH2 PO4 1.0, NaHCOP3 26.4, CaCl2, 2.0, MgSO4 1.5 and D-glucose 10.0, and was equilibrated with 95% 02:5% CO2. When needed for study, slices were placed one at a time in a small submersion chamber maintained at 35° C. where they were continuously perfused at 1.0-2.0 ml/min. Fresh solutions reached the recording chamber within 20 seconds and the perfusate was completely changed over within a minute. Additional oxygen and stirring was provided by an air jet (95% O2 :5% CO2) directed at the surface of the ACSF. Standard electrophysiological techniques were employed. Extracellular recording electrodes were glass micropipettes filled with 2.0 M NaCl and broken back to 2.0 m.OMEGA. resistance. All recording was from the somatic region of CA1. […] Intracellular recording electrodes of 60-100 MQ resistance were filled with 2.5 M KAc. […] The Schaffer collateral/commissural fibers were stimulated with tungsten bipolar stimulating electrodes at a rate of 0.03 Hz. The resulting field EPSP (S/C-CA1 EPSP) and the DC potential were amplified by an Axoprobe 1 amplifier and were continuously monitored on a Tektronix 5111A storage oscilloscope and a Gould 2300 chart recorder with a Gould Waveform storage module. Epileptiform activity was induced by omission of Mg++ ions from the perfusate, which removes the Mg++ mediated voltage-dependent block of the NMDA. receptor [B. Ault et al., J. Physiol., 307, 413-428 (1980)], or by the addition of the GABA antagonist picrotoxin. Drugs were added to the perfusate and zero magnesium refers to solutions which contain no added magnesium. The amplitude of the stimulus evoked primary population spike was used to assess the effects of experimental manipulations on the efficacy of synaptic function.

[3] = target: T1, strychnineinsensitive glycine recognition site (NMDA receptor-ion channel complex) (Rattus norvegicus, UniProt P35439); assay: Glycine binding assay, [3H]glycine, synaptic plasma membranes; details: 10 nM [3H]glycine, pH 7.4, rat forebrain SPM; read-out: Ki apparent, Gly
T1 construct: Synaptic plasma membranes (SPM) were prepared from rat forebrain; from tissue; host or cells: rat forebrain synaptic plasma membranes
Description: Synaptic plasma membranes (SPM) were prepared from rat forebrain and stored as previously described [J. B. Monahan and J. Michel, J. Neurochem, 48, 1699-1708 (1987)]. Frozen membranes were thawed and diluted 1:20 with 0.04% triton X-100 in 50 mM tris/acetate (pH 7.4). Following incubation at 37° C. for 30 min., the SPM were collected by centrifugation at 95,000 X g for 15 min. The pellet was resuspended in 50 mM tris/acetate (pH 7.4, triton-free) and hand-homogenized five times. The membranes were again centrifuged as above. The pellet was washed two additional times with 50 mM tris/acetate (without homogenization) and centrifuged. The final pellet was resuspended with homogenization in 50 mM tris/acetate.
In the general receptor binding assay procedure, 10 nM [^3 H]glycine was added to the appropriate concentration of the test compounds and the assay initiated by the addition of 0.2-0.4 mg of ice cold SPM. The assay, which was done in 1.5 ml centrifuge tubes, was adjusted to a total volume of 1.0 ml with all additions being made in 50 mM tris/ acetate, pH 7.4 at 4° C. After a 10 minute incubation at 2° C., the samples were centrifuged for 15 min. at 12,000 g (4° C.) in a Beckman Microfuge 12. The supernatant was aspirated and the tube tip containing the pelleted membranes cut off and agitated in 0.5 ml of Beckman BTS-450 tissue solubilizer for a minimum of 6 hours at room temperature. Beckman MP scintillation cocktail (5 ml) containing 7 ml/liter acetic acid was then added and the samples counted on a Beckman LS 5800 liquid scintillation counter with automatic corrections for quenching and counting efficiency. […] The binding of [^3 H]glycine to the SPM was analyzed using Scatchard and Hill transformations and the Ki for other compounds was determined using logit-log analysis. Calculations and regression analysis were performed using templates developed for Lotus 123 as previously described [Pullan et al, Id.].

[4] = target: T2, NMDA receptor (rat brain receptor expressed in Xenopus oocytes) (Rattus norvegicus, UniProt P35439); assay: Xenopus oocytes injected with rat cortex mRNA, blocking of glycine effects (voltage clamp); format: cell-based; details: 100 μM NMDA
T2 construct: PolyA+ RNA (mRNA) was extracted from adult male rat cortex; expressed in transfected cells; host or cells: Xenopus laevis oocytes microinjected with rat cortex poly(A)+ RNA
Description: PolyA+ RNA (mRNA) was extracted from adult male rat cortex using the refined guanidinium thiocyanate method developed by Han et al [J. H. Han et al., Biochemistry, 26, 1617-1625 (1987)] and the oligo (dT) cellulose chromatography procedure of Adiv and Leder [H. Aviv et al., Proc. Nat. Acad. Sci., 69, 1408-1412 (1972)]. Aliquots of mRNA (1.0 mg/ml water) were stored at -20° C.
Gravid adult female Xenopus laevis (Xenopus One, Ann Arbor, Mich. or NASCO, Ft. Atkinson, Wis.) were anaesthetized with 0.2% (w/v) Tricaine (3-amino benzoic acid ethyl ester; Sigma) and subjected to partial ovarectomy. Excised oocytes were then prepared and microinjected [N. W. Kleckner et al, Science 241 835-837 (1988)]. Oocytes were treated for one hour in Barth's solution (88.0 mM NaCl, 1.0 mM KCl, 2.4 mM NaHCO3, 0.41 mM CaCl2, 0.82 mM MgSO4, 10.0 μg/ml penicillin, 100.0 μg/ml streptomycin, 10.0 mM HEPES, pH 7.5) containing 1.5 mg/ml Neutral Protease (Beohringer Mannheim Biochemicals, Grade II). Oocytes were then placed in Barth's solution containing 100.0 mM sucrose and manually defolliculated with fine forceps. Defolliculated oocytes were then microinjected with approximately 50 ng of mRNA in Barth's solution at 16°-18° C.
Oocytes were assayed 2-8 days later for rat brain receptor expression via single electrode voltage. clamp (Axoclamp 2A, Axon Instruments) in a manner similar to that previously described [Kleckner et al, Id.]. […] Drugs were added to the perfusate and inward currents induced by agonist compounds were measured at peak steady state response. […] Antagonist compounds were perfused for a minimum of 3.0 minutes prior to subsequent agonist co-application. Data are expressed as percent maximal response (mean±S.E.M.). Half-maximal responses (EC50 's) and slopes for dose response data were determined from the least squares fit to the logistic regression equation.

[5] = test system: Cerebellar cGMP; assay: Assay for effect on cGMP (cerebellum, intracisternal injection); format: in vivo, Swiss Hausche mice; details: D-Serine (100 μg) alone, ± SEM
Description: Male Swiss Hausche mice (25-30 g) were injected intracisternally (i.c.t.) with glycine agonists 10 minutes prior to sacrifice by focussed microwave irradiation. Compounds of the invention were injected intracisternally 2 minutes prior to the agonist. For intracisternal injections, al agonists were dissolved in HCl and diluted with isotonic saline prior to adjustment of the pH to between 6 and 7 with NaOH. The compounds of the invention were dissolved in isotonic saline and all compounds were administered in a volume of 5 μl.
Hydrochloric acid in extracts of the cerebellum were freeze-dried for assay of cGMP with a commercial RIA kit (NEN). Protein determinations (Lowery) and statistics (Dunett's t-test) were performed as described previously [P. L. Wcod et al., Neurochem., 19, 975-982 (1980)]. Groups consisted of 7-10 mice.

For `O=C(O)c1cc(O)c2ccc(Cl)cc2n1` [7-chlorokynurenic acid], the NMDA antagonist activity [1] is listed as “NMDA antagonist” and the “reversal of NMDA antagonist activity / blocking effect by glycine” value [1] is listed as “blocking effect can be reversed by glycine”.

For `CC(C)OC(=O)Cc1c(C(=O)O)[nH]c2cc(Cl)ccc12` [Compound No. 35, 2-propyl 2-carboxy-6-chloro-3-indoleacetate], the activity at 300 µM ([2]; read-out: Burst duration) was 19.2%, the activity at 300 µM ([2]; read-out: Primary population spike amplitude) was 82.1% and the activity at 300 µM ([2]; read-out: Spontaneous activity) was 0%. For the same compound, the activity at 300 µM ([2]; read-out: Sum of additional population spike amplitude) was 35.6%, the Ki [3] was 3.9 µM and the IC50 ([4]; IC50, 1.0 μM Gly, 1.0 μM glycine) was 4.5 ± 0.5 µM. It also gave an IC50 ([4]; IC50, 10 μM Gly, 10 μM glycine) of 68.5 ± 13.5 µM.

With `N[C@H](CO)C(=O)O` [D-Serine, reference compound] the “Cerebellar cGMP” value [5] was 17.5 ± 2.4 pmol/mg protein.

For `O=C(O)c1cc(O)c2ccccc2n1` [kynurenic acid, 2-carboxy-4-hydroxyquinoline], the NMDA antagonist activity [1] is listed as “known NMDA antagonist” and the “reversal of NMDA antagonist activity / blocking effect by glycine” value [1] is listed as “can be reversed by the presence of glycine”.

From patent US5229413A, “Compositions containing indole-2-carboxylate compounds for treatment of CNS disorders” (G. D. Searle & Co., priority 1992, dated 1993)
